# Assay results reported in US20250249025A1, “DRUG DELIVERY CARRIER UTILIZING PROPERTY OF D-ALLOSE BEING UPTAKEN BY CANCER CELL, DRUG DELIVERY METHOD, AND COMPOSITION FOR TREATING RENAL CELL CARCINOMA” (NATIONAL UNIVERSITY CORPORATION KAGAWA UNIVERSITY, priority 2019, published 2025).
# How the values were obtained:
# [1] = Body weight in renal cell carcinoma xenograft mouse models; format: in vivo, mice; settings: Control, 100 mg/kg and 400 mg/kg intraperitoneal once a day for 5 weeks; Mann-Whitney U test; FIG. 6
# Experimental: (§1) The day when the tumor size of the renal cell carcinoma xenograft mouse models became 200 mm^3 or more was called day 0 and the intraperitoneal injection of a D-allose-containing solution was started from day 1. The solution injected is 0.4 mL of physiological saline or a solution obtained by dissolving 100 mg/kg or 400 mg/kg of D-allose in 0.4 mL physiological saline. The resulting solution was intraperitoneally injected into three groups of mice (Control, 100 mg/kg of D-allose, and 400 mg/kg of D-allose) once a day for 5 weeks in total. The body weight of the mice and the long and short diameters of the tumor were measured over time twice a week. It is to be noted that the tumor volume was obtained as a product of long diameter×short diameter×short diameter of the tumor×0.5. On day 35 after the intraperitoneal injection was started, the tumor as well as the liver and kidney were excised from the mice and provided for the experiment performed thereafter.
# Caki-I tumor = assay: D-allose concentration in tumor after intraperitoneal injection, Caki-I xenograft mouse model; format: in vivo; settings: Caki-I xenograft mice, 400 mg/kg intraperitoneal
# Experimental: The experiment of the present example used two human renal cell carcinoma cell lines (Caki-I and ACHN). Each cell was cultured under the wet environment of 37° C. and 5% CO2 by using a RPMI-1640 culture solution (2000 mg D-glucose/L) containing a 10% fetal calf serum, a HEPES buffer, and penicillin-streptomycin.
# With respect to a renal cell carcinoma xenograft mouse model, a 1.0×10^5 cells/ml of a cell suspension was obtained by adjusting the cultured cells with a MEM culture solution and then 0.1 ml of the resulting suspension was injected into the femoral subcutaneous tissue of Female athymic nude mice (BALB/c-nu/nu, 6-week-old). After checking that the tumor volume was 200 mm^3 or more one week after the injection, the mice were provided for the experiment thereafter.
# A 400 mg/kg/0.4 mL solution of rare sugar D-allose was prepared using physiological saline and was intraperitoneally injected into the xenograft mouse models of two human renal cell carcinoma cell lines (Caki-I and ACHN) through a 27 G needle. A tumor was enucleated from the mouse before […] administration and 1 hour, 2 hours, and 4 hours after the administration. […] A monosaccharide in the supernatant thus obtained was labeled with ABEE (4-aminobenzoic acid ethyl ester) and the quantitative analysis of D-allose was performed by HPLC (high performance liquid chromatography). […]
# [2] = test system: human renal cell carcinoma cell line Caki-II; assay: Rare sugar uptake experiment, sugar content in disrupted cell suspension of Caki-II; format: cell-based
# Experimental: An uptake amount of a rare sugar, which had been added to a medium, into carcinoma cells was analyzed using the cell lines of three types of cancers. As the rare sugar, four kinds, that is, D-allose, D-allulose (D-psicose), L-allulose (L-psicose), and allitol were used, while D-glucose and fructose were used as a monosaccharide which was not a rare sugar.
# Cells of each of the cell lines were cultured in RPMI-1640 media and during culturing, six sugars were each added to the resulting media and cultured. After culturing, an amount of each sugar taken up into the cells was analyzed. The medium to which no sugar was added during culturing was used as a control.
# Used were human bladder carcinoma cell lines (RT112, 253), and J82), human prostatic carcinoma cell lines (LNCa, Du145, and PC-3), and human renal cell carcinoma cell lines (ACHN, Caki-I, and Caki-II).
# After cells were cultured in RPMI-1640 (2000 mg D-glucose/L) media, the above monosaccharides and rare sugars were added to the resulting media, respectively. Described specifically, they were following seven combinations: RPMI-1640 alone (control), RPMI-1640+D-glucose, RPMI-1640+L-allulose, RPMI-1640+D-allulose, RPMI-1640+D-fructose, RPMI-1640+D-allose, and RPMI-1640+D-allitol. The final concentration of the sugar in the medium was adjusted to 10 mM and no sugar was added in the control.
# Five-ml portions of a 3.0×10^4 cells/ml cell suspension prepared using RPMI-1640 were seeded in dishes having a diameter of 6 cm (1.5×10^5 cells/dish) and cultured for 24 hours in the RPMI-1640 medium containing 2000 mg/l of D-glucose as a nutrient source. Twenty-four hours later, the media were changed to the culture solutions containing the monosaccharides and rare sugars described above in 2), respectively, followed by culturing for 48 hours.
# After culturing for 48 hours, the attached human carcinoma cells were mechanically separated and collected in a Spitz tube together with the culture solution and floating cells. After the supernatant formed by centrifugation (4° C., 1200 rpm, and 5 minutes) was removed to obtain cell pellets alone, 5 ml of a phosphate buffer physiological saline (PBS) was added for the purpose of washing to obtain a cell suspension of the cell pellets. A gain, the resulting cell suspension was centrifuged at 4° C. and 1200 rpm for 5 minutes and the supernatant was removed. To the cell pellets after washing was added 1 ml of pure water to suspend them therein. Ultrasonic disruption (intensity: 40%, 30 seconds) was then performed and the monosaccharide in the disrupted cell suspension was labeled with ABEE, followed by analysis by HPLC. From the area thus obtained, the sugar content in the cells was determined using a calibration curve. With respect to the ketose, two peaks were found after labeling with ABEE so that the sugar content in the cells was determined from the calibration curves of both peaks.
# kidney tissue = assay: Kidney tissue histology in renal cell carcinoma xenograft mouse models; format: in vivo; settings: xenograft mice, intraperitoneal once a day, day 35; diagnosis by a medical specialist in pathology; FIG. 7
# Experimental: as §1, with “On day 35 after the intraperitoneal injection was started, the tumor as well as the liver and kidney were excised from the mice and provided for the experiment performed thereafter.” left out
# The tissue of the excised tumor, kidney, and liver was fixed with a 4% paraformaldehyde phosphate buffer, embedded with paraffin, and sliced into a 4-μm thick section. The resulting sliced section was stained with hematoxylin and eosin and evaluated by a medical specialist in pathology. The influence of D-allose on the tumor tissue was evaluated by a necrosis area (%) and an image of the number of nuclear fissions (Cells/HPF). It is to be noted that the necrosis area was measured using an image recording software Nikon NIS—Elements D and figures after the decimal point were omitted. […]
compound,measurement,setting,value
O=C[C@H](O)[C@H](O)[C@H](O)[C@H](O)CO [D-allose],"Mice weight, difference among three groups",[1],No significant difference
same,D-allose in tumor one hour after intraperitoneal injection,"Caki-I tumor; HPLC, FIG. 4",detected
same,Time after injection at which D-allose concentration in tumor became the highest,"Caki-I tumor; sampled 1, 2, 4 hours",one
same,D-glucose content in cell,"[2]; Caki-II, named sugar added to RPMI-1640 at 10 mM, 48 hours, HPLC after ABEE labeling",3.4 µg
same,Content in cell of the added sugar,"[2]; human, 48 h, 10 mM",11.2 µg
same,Influence on the kidney tissue,kidney tissue,No influence
